Values quoted from earlier work as cited in PMC4338372 (FEBS Open Bio, 2015).

Test system: Src family kinase
Details: macrophages; inhibition of Src family kinase

## CC(C)(C)n1nc(-c2ccc(Cl)cc2)c2c(N)ncnc21 [PP2]
  phagocytosis efficiency: decreases phagocytosis efficiency in macrophages
